For 29 compounds, Ki and Kd results are on record in ChEMBL document CHEMBL5316358, “Structure-Activity Relationships of Ligand Binding to Oxysterol-Binding Protein (OSBP) and OSBP-Related Protein 4” (J Med Chem, 2023).

Where only a bound is given, the exact number is not on record here.

Experiment [1] concerns the target T1, Oxysterol-binding protein 2 (Homo sapiens, UniProt Q969R2).
T1 sequence (Q969R2 whole entry): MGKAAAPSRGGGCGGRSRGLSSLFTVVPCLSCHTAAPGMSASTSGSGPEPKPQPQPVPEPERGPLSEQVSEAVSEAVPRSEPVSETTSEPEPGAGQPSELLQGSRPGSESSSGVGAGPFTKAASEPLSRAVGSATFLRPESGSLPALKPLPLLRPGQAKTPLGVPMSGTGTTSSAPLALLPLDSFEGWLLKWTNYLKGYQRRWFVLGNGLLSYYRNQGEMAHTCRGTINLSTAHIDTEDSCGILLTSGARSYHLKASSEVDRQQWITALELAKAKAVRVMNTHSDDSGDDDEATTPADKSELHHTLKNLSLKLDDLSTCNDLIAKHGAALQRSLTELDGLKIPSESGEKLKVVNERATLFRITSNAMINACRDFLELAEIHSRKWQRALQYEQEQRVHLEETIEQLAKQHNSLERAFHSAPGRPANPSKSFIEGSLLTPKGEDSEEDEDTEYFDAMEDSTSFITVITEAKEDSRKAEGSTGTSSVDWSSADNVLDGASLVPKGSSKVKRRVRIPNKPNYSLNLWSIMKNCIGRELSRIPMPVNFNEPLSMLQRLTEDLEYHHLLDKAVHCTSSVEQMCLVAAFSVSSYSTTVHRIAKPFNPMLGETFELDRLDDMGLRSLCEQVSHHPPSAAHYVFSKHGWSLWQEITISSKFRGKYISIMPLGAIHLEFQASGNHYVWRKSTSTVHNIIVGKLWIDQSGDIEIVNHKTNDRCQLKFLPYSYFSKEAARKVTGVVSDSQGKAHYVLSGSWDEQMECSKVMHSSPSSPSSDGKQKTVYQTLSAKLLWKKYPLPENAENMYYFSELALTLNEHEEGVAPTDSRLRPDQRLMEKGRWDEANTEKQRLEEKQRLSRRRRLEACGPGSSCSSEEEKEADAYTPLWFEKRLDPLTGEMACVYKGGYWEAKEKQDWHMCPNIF
As to the kind of experiment: Displacement of [3H]-25-OHC from human ORP4 overexpressed in HEK293T cell lysate assessed as inhibition constant by competitive binding assay. The class given is subcellular.

Experiment [2] has as its target T2, Oxysterol-binding protein 1 (Homo sapiens, UniProt P22059).
T2 sequence (P22059 whole entry): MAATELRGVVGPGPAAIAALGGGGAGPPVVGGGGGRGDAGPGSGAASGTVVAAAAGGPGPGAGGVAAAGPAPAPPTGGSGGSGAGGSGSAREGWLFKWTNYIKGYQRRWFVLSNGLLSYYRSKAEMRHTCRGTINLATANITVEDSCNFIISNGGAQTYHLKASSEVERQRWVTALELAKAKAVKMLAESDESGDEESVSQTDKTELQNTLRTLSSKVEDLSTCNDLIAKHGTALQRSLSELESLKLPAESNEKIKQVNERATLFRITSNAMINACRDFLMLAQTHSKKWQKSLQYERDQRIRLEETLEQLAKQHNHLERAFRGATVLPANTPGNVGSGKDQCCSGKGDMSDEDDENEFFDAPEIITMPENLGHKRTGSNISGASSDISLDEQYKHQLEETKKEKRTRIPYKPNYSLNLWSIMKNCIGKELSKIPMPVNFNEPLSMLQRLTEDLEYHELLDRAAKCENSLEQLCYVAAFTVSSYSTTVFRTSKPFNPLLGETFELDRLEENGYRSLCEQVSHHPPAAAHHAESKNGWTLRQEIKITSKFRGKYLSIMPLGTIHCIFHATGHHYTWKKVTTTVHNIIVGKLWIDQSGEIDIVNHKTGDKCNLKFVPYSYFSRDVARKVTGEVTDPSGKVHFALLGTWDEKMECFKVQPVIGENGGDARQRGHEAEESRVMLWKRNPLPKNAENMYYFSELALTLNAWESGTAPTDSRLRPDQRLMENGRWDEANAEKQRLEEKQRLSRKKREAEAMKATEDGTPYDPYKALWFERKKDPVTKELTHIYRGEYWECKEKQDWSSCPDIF
As to the kind of experiment: Binding affinity to human OSBP.

The target of experiment [3] is T2, Oxysterol-binding protein 1. As to the kind of experiment: Displacement of [3H]-25-OHC from human OSBP overexpressed in HEK293T cell lysate assessed as inhibition constant by competitive binding assay.
The target is the same in experiment [4]. Description: Displacement of [3H]-25-OHC from human OSBP overexpressed in HEK293T cell lysate assessed as inhibition constant. The class given is subcellular.
Experiment [5] concerns the target T1, Oxysterol-binding protein 2. As to the kind of experiment: Displacement of [3H]-25-OHC from human ORP4 overexpressed in HEK293T cell lysate assessed as inhibition constant. The format is subcellular.

Turning to `CC(C)CC[C@H](O)[C@@H](C)[C@H]1CC[C@H]2[C@@H]3CC=C4C[C@@H](O)CC[C@]4(C)[C@H]3CC[C@]12C`, the Ki in experiment [1] was over 3000 nM.

As for `C[C@H](CCCC(C)(C)O)[C@H]1CC[C@H]2[C@@H]3CC=C4C[C@@H](O)CC[C@]4(C)[C@H]3CC[C@]12C`, binding in experiment [2] was put at a Kd of 22 nM.

Regarding `CC(C)[C@@H](O)CC[C@@H](C)[C@H]1CC[C@H]2[C@@H]3CC=C4C[C@@H](O)CC[C@]4(C)[C@H]3CC[C@]12C`, the Ki in experiment [1] was found to be 400 nM.

Consider `CC(C)CCC[C@](C)(O)[C@H]1CC[C@H]2[C@@H]3CC=C4C[C@@H](O)CC[C@]4(C)[C@H]3CC[C@@]21C`, for which the Ki in experiment [3] amounted to 130 nM; in experiment [1], 320 nM.

Consider `C[C@@H](CO)CCC[C@@H](C)[C@H]1CC[C@H]2[C@@H]3CC=C4C[C@@H](O)CC[C@]4(C)[C@H]3CC[C@]12C`, for which, in experiment [1], the Ki was over 1000 nM.

On to `CCN(CC)CCO[C@H]1CC[C@@]2(C)C(=CC[C@@H]3[C@@H]2CC[C@]2(C)C(=O)CC[C@@H]32)C1`, for which the Ki in experiment [1] is over 50000 nM.

Consider `COc1ccc(C(=O)O[C@H]2[C@H](O[C@@H]3[C@@H](OC(C)=O)[C@H](O[C@H]4C[C@H]5[C@@H]6CC=C7C[C@@H](O)CC[C@]7(C)[C@H]6CC[C@]5(C)[C@@]4(O)[C@H](C)C(=O)CCC(C)C)OC[C@@H]3O)OC[C@@H](O)[C@@H]2O)cc1`, for which the Ki in experiment [4] worked out at 16 nM; in experiment [5] it was 71 nM.

For the compound `C[C@H](O)[C@H]1CC[C@H]2[C@@H]3CC=C4C[C@@H](O)CC[C@]4(C)[C@H]3CC[C@]12C`, the Ki in experiment [1] is over 100000 nM.

For the compound `C[C@H](CCCC(C)(C)O)[C@H]1CC[C@H]2[C@@H]3[C@H](O)C=C4C[C@@H](O)CC[C@]4(C)[C@H]3CC[C@]12C`, the Ki in experiment [3] was determined as 78 nM; in experiment [1] it was 92 nM.

On to `C[C@H](CO)CCC[C@@H](C)[C@H]1CC[C@H]2[C@@H]3CC=C4C[C@@H](O)CC[C@]4(C)[C@H]3CC[C@]12C`, for which the Ki in experiment [1] was over 870 nM.

Turning to `CCCCCCCC[C@](C)(O)[C@H]1CC[C@H]2[C@@H]3CC=C4C[C@@H](O)CC[C@]4(C)[C@H]3CC[C@@]21C`, the Ki is over 10000 nM in experiment [3] and over 20000 nM in experiment [1].

On to `CC(C)C[C@](C)(O)[C@H]1CC[C@H]2[C@@H]3CC=C4C[C@@H](O)CC[C@]4(C)[C@H]3CC[C@@]21C`, for which the inhibition constant Ki in experiment [3] was over 20000 nM; in experiment [1], over 30000 nM.

Consider `CC[C@](C)(O)[C@H]1CC[C@H]2[C@@H]3CC=C4C[C@@H](O)CC[C@]4(C)[C@H]3CC[C@@]21C`, for which the Ki in experiment [3] and in experiment [1] was over 30000 nM throughout.

Turning to `CC1(C)C[C@H]2[C@@H]3CC=C4C[C@@H](OC5CCCCO5)CC[C@]4(C)[C@H]3CC[C@]2(C)[C@H]1O` (stereo partly drawn), the figures for the inhibition constant Ki in experiment [4] and in experiment [5] were 22 nM and 98 nM, respectively.

As to `C[C@]12CC[C@H](O)CC1=CC[C@@H]1[C@@H]2CC[C@]2(C)C([C@H](O)CO)=CC[C@@H]12`, the Ki in experiment [3] and in experiment [1] was over 50000 nM in each case.

For the compound `CC(C)CC[C@](C)(O)[C@H]1CC[C@H]2[C@@H]3CC=C4C[C@@H](O)CC[C@]4(C)[C@H]3CC[C@@]21C`, the values for the Ki in experiment [3] and in experiment [1] were 1300 nM and over 2000 nM, respectively.

On to `CC(C)CCN[C@@H](C)[C@H]1CC[C@H]2[C@@H]3CC=C4C[C@@H](O)CC[C@]4(C)[C@H]3CC[C@]12C`, for which the Ki in experiment [3] and in experiment [1] was over 100000 nM in each case.

With `CCCC[C@](C)(O)[C@H]1CC[C@H]2[C@@H]3CC=C4C[C@@H](O)CC[C@]4(C)[C@H]3CC[C@@]21C`, the Ki in experiment [3] was over 10000 nM; in experiment [1] it was over 30000 nM.

For `CCCCC[C@](C)(O)[C@H]1CC[C@H]2[C@@H]3CC=C4C[C@@H](O)CC[C@]4(C)[C@H]3CC[C@@]21C`, the Ki was found to be 600 nM in experiment [3] and 780 nM in experiment [1].

For `C[C@@H]1[C@@]2(CC[C@](C)(O)CO2)O[C@H]2C=C3[C@@H]4[C@@H](O)C[C@H]5Cc6nc7c(nc6C[C@]5(C)[C@H]4C[C@@H](O)[C@]3(C)[C@]21O)C[C@@H]1CC[C@H]2[C@H]3C[C@@H]4O[C@@]5(CCC(C)(C)O5)[C@@H](C)[C@@H]4[C@@]3(C)[C@H](O)C[C@@H]2[C@@]1(C)C7`, the Ki in experiment [4] was 28 nM; in experiment [5] it was over 360 nM.

Take `C[C@H](CCCC(C)(C)O)[C@H]1CC[C@H]2[C@@H]3CCC4C[C@@H](O)CC[C@]4(C)[C@H]3CC[C@]12C` (stereo partly drawn): in experiment [1], the Ki was 51 nM.

Turning to `CC(C)C[C@@](C)(O)[C@H]1CC[C@H]2[C@@H]3CC=C4C[C@@H](O)CC[C@]4(C)[C@H]3CC[C@@]21C`, the Ki in experiment [3] and in experiment [1] was over 50000 nM throughout.

Take `CCCCCCCC[C@@](C)(O)[C@H]1CC[C@H]2[C@@H]3CC=C4C[C@@H](O)CC[C@]4(C)[C@H]3CC[C@@]21C`: the Ki in experiment [3] and in experiment [1] was over 100000 nM each time.

With `CC(C)CC[C@@H](O)[C@](C)(O)[C@H]1CC[C@H]2[C@@H]3CC=C4C[C@@H](O)CC[C@]4(C)[C@H]3CC[C@]12C`, the inhibitory constant (Ki) in experiment [3] is over 30000 nM; in experiment [1] it was over 15000 nM.

Consider `CC(C)CC[C@@H](O)[C@@H](C)[C@H]1CC[C@H]2[C@@H]3CC=C4C[C@@H](O)CC[C@]4(C)[C@H]3CC[C@]12C` [22(R)-HYDROXYCHOLESTEROL], for which the Ki in experiment [1] was over 50000 nM.

As for `C[C@@H]1[C@]2(O[C@H]3C=C4[C@@H]5CC[C@H]6Cc7nc8c(nc7C[C@]6(C)[C@H]5C[C@@H](O)[C@]4(C)[C@]31O)C[C@@H]1CC[C@H]3C4=CC[C@@H]5[C@H](C)[C@@]6(OC[C@]45C(=O)C[C@@H]3[C@@]1(C)C8)OC(C)(C)C[C@H]6O)O[C@](C)(CO)C[C@H]2O` [CEPHALOSTATIN 1], the Ki amounted to 39 nM in experiment [4] (hek293t) and 78 nM in experiment [5] (hek293t).

Turning to `C[C@@H]1CC[C@@]2(OC1)O[C@H]1C[C@H]3[C@@H]4CC=C5C[C@@H](O)CC[C@]5(C)[C@H]4CC[C@]3(C)[C@H]1[C@@H]2C` [DISOGENIN], the Ki in experiment [3] was over 100000 nM.

Take `CC(C)(O)[C@H]1O[C@H]2CC[C@@]3(C)[C@@](O)(CC[C@H]4Cc5c([nH]c6ccccc56)[C@@]43C)C2=CC1=O` [PAXILLINE]: the figures for the Ki in experiment [3] and in experiment [1] were over 50000 nM and over 30000 nM, respectively.

In the case of `CC(C)=CCC/C(C)=C/Cc1c(O)cc(/C=C/c2cc(O)c3c(c2)C[C@@H]2C(C)(C)[C@H](O)[C@H](O)C[C@@]2(C)O3)cc1O` [SCHWEINFURTHIN A], the Ki in experiment [4] (hek293t) was found to be 68 nM; in experiment [5] (hek293t), 2600 nM.
